Experiments:
EP3 receptor [1] = biological target: T1, EP3 receptor (Homo sapiens, UniProt P43115); test: [3H]-PGE2 binding assay (EP3 competition binding); details: read-out: [3H]-PGE2 Binding Ki
T1 construct: purchased Millipore HTS092M
T1 sequence (P43115 1-390): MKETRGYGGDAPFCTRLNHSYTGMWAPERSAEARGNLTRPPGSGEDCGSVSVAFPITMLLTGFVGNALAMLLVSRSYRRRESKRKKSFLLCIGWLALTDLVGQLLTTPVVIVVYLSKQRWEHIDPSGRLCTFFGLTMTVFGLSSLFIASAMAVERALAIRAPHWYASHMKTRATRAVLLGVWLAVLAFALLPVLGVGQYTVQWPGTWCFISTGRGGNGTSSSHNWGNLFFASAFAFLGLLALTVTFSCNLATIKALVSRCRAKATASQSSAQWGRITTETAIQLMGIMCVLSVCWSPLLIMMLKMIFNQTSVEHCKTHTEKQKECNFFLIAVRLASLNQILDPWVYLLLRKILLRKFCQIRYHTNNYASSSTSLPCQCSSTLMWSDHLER
Method: EP3 competition binding was determined using the following materials and experimental conditions:
Beads=Perkin Elmer RPNQ0001
EP3 membrane=Millipore HTS092M
Membrane concentration=2 μg/well
Beads concentration=0.25 mg/well
[3H]-PGE2=2 nM; DMSO—0.1%
Binding buffer=50 mM Tris, 10 mM MgCl2, 1 mM • EDTA, PH 7.4.
The binding buffer was removed from refrigeration (@ 4° C.) and allowed to warm to room temperature. Test compound (@ stock concentration of […] in DMSO) was serial dilutes (1:3) with 100% DMSO using Echo plate. Diluted test compound (30 nL) was dispensed to the 384-well assay plate (using Echo 550 Labcyte System). To each well was then added assay buffer (5 μl) and each well was spun. Beads were weighed out, dissolved in assay buffer to a concentration of 0.25 mg/15 μl. Original membrane was diluted with assay buffer to a concentration of 2 μg/5 μl. […] To each test well were then added diluted [3H]-PGE2 (5 μl), diluted membrane (5 μl), and dissolved beads (15 μl). The plate was equilibrated at room temperature on a plate shaker for 2 hours and then read with a TOPCOUNT scintillation plate reader. Results were analyzed using a Prism program with non-linear regression, one-site fit for Ki.

EP3 receptor [2] = biological target: T1, EP3 receptor; test: CHO cell cAMP assay (forskolin and sulprostone stimulated, HTRF); format: cell-based; details: CHO cells; sulprostone 700 nM (EC80) and FSK 2 μM (EC70), 37° C. for 30 minutes; read-out: CHO_cAMP IC50
Method: For detection, a homogeneous competitive immunoassay (Time Resolved Fluorescence Energy Transfer (hTR-FRET)) was used.
Cells (6K cells per well) were plated in Poly-D-Lysine coated plates the day before the assay was to be run and were incubated at 37° C. […] At the start of the assay the buffer was removed from the cells and replaced with buffer containing test compound(s). Sulprostone at an EC80 dose (700 nM) and FSK at an EC70 dose (2 μM) were added to initiate the reaction (37° C. for 30 minutes).
FSK increases cAMP production and sulprostone decreases cAMP production produced by FSK. In this assay, EP3 antagonists will increase the cAMP to the level of cAMP generated by FSK alone.
Approximately one hour later the plates were read on an Envision (Perkin Elmer) in HTRF mode.
NSP, NSN, NSsample were converted to nM cAMP using the following equation: […]
IC50 values were determined from a […] (Hill equation) of a single 11-point compound dosing.

Work on `O=C1NC(=O)[C@]2(CCC[C@H](c3ccc(-c4ccc5ccccc5c4)[nH]c3=O)C2)N1` (racemic) [compound 191, 7-(6-(naphthalen-2-yl)-2-oxo-1,2-dihydropyridin-3-yl)-1,3-diazaspiro[4.5]decane-2,4-dione] yielded a Ki (EP3 receptor [1]) of 5 nM and an IC50 (EP3 receptor [2]) of 20 nM.
Molecule `CCn1ncc2c(F)cc(-c3ccc(C(CC)(CC)c4nnn[nH]4)c(=O)[nH]3)cc21` [Compound #3, 3-(3-(1H-tetrazol-5-yl)pentan-3-yl)-6-(1-ethyl-4-fluoro-1H-indazol-6-yl)pyridin-2(1H)-one] has a Ki (EP3 receptor [1]) of 17 nM and an IC50 (EP3 receptor [2]) of 349 nM.
With `CCn1ncc2c(F)cc(-c3ccc(C(CC)(CC)c4noc(=O)[nH]4)c(=O)[nH]3)cc21` [Compound #4] the Ki (EP3 receptor [1]) was 88 nM and the IC50 (EP3 receptor [2]) was 1800 nM.
For `CCn1ncc2c(F)cc(-c3ccc(C(CC)(CC)c4ccon4)c(=O)[nH]3)cc21` [Compound #29, 6-(1-ethyl-4-fluoro-1H-indazol-6-yl)-3-(3-(isoxazol-3-yl)pentan-3-yl)pyridin-2(1H)-one], the Ki (EP3 receptor [1]) was 3 nM and the IC50 (EP3 receptor [2]) was 9 nM.
Work on `CCn1ncc2c(F)cc(-c3ccc(C(CC)(CC)c4ncco4)c(=O)[nH]3)cc21` [Compound #30, 6-(1-ethyl-4-fluoro-1H-indazol-6-yl)-3-(3-(oxazol-2-yl)pentan-3-yl)pyridin-2(1H)-one] yielded a Ki (EP3 receptor [1]) of 2 nM and an IC50 (EP3 receptor [2]) of 12 nM.
`CCn1ncc2c(F)cc(-c3ccc(C(CC)(CC)c4nnco4)c(=O)[nH]3)cc21` [Compound #42, 3-(3-(1,3,4-oxadiazol-2-yl)pentan-3-yl)-6-(1-ethyl-4-fluoro-1H-indazol-6-yl)pyridin-2(1H)-one] gave a Ki (EP3 receptor [1]) of 9 nM and an IC50 (EP3 receptor [2]) of 20 nM.
With `CC(C)C(/C=C1/C(=O)NC(=O)N1C)c1ccc(-c2ccc3cccc(F)c3c2)[nH]c1=O` (stereo not shown) [Compound #80, 5-(2-(6-(8-fluoronaphthalen-2-yl)-2-oxo-1,2-dihydropyridin-3-yl)-3-methylbutylidene)-1-methylimidazolidine-2,4-dione] the Ki (EP3 receptor [1]) was 6 nM and the IC50 (EP3 receptor [2]) was 11 nM.
With `CCn1ncc2c(F)cc(-c3ccc(C(Cc4noc(=O)[nH]4)C(C)C)c(=O)[nH]3)cc21` (stereo not shown) [Compound #99, 3-(2-(6-(1-ethyl-4-fluoro-1H-indazol-6-yl)-2-oxo-1,2-dihydropyridin-3-yl)-3-methylbutyl)-1,2,4-oxadiazol-5(4H)-one] the Ki (EP3 receptor [1]) was 921 nM and the IC50 (EP3 receptor [2]) was 4880 nM.
In the case of `CCN1CCOc2ccc(-c3ccc(C(CN4CCS(=O)(=O)CC4)C(C)C)c(=O)[nH]3)cc21` (stereo not shown) [Compound #104, 3-(1-(1,1-dioxidothiomorpholino)-3-methylbutan-2-yl)-6-(4-ethyl-3,4-dihydro-2H-benzo[b][1,4]oxazin-6-yl)pyridin-2(1H)-one], the Ki (EP3 receptor [1]) is reported as 53 nM and the IC50 (EP3 receptor [2]) is reported as 375 nM.
`CCn1ncc2c(F)cc(-c3ccc(C(CN4CCN(S(C)(=O)=O)CC4)C(C)C)c(=O)[nH]3)cc21` (stereo not shown) [Compound #109, 6-(1-ethyl-4-fluoro-1H-indazol-6-yl)-3-(3-methyl-1-(4-(methylsulfonyl)piperazin-1-yl)butan-2-yl)pyridin-2(1H)-one] was tested, and the Ki (EP3 receptor [1]) was 27 nM and the IC50 (EP3 receptor [2]) was 115 nM.
For `Cc1cc(C(CC2OC(=O)NC2=O)C(C)C)c(=O)[nH]c1-c1ccc2cccc(F)c2c1` (stereo not shown) [Compound #112], the Ki (EP3 receptor [1]) was 57 nM and the IC50 (EP3 receptor [2]) was 212 nM.
Work on `CCN1C(=O)COc2c(F)cc(-c3ccc(C(CN4CCS(=O)(=O)CC4)C(C)C)c(=O)[nH]3)cc21` (stereo not shown) [Compound #128, 4-{2-[6-(4-ethyl-8-fluoro-3-oxo-2H-1,4-benzoxazin-6-yl)-2-oxo-1H-pyridin-3-yl]-3-methylbutyl},4-thiomorpholine-1,1-dione] yielded a Ki (EP3 receptor [1]) of 154 nM and an IC50 (EP3 receptor [2]) of 18000 nM.
`CCN1CCOc2c(F)cc(-c3ccc(C(CN4CCS(=O)(=O)CC4)C(C)C)c(=O)[nH]3)cc21` (stereo not shown) [Compound #129, 4-{2-[6-(4-ethyl-8-fluoro-2,3-dihydro-1,4-benzoxazin-6-yl)-2-oxo-1H-pyridin-3-yl]-3-methylbutyl}-1,4-thiomorpholine-1,1-dione] gave a Ki (EP3 receptor [1]) of 6 nM and an IC50 (EP3 receptor [2]) of 149 nM.
Work on `CCn1ncc2c(F)cc(-c3ccc(C(CN4CCS(=O)(=O)CC4)C(C)C)c(=O)[nH]3)cc21` (stereo not shown) [Compound #133, 4-{2-[6-(1-ethyl-4-fluoroindazol-6-yl)-2-oxo-1H-pyridin-3-yl]-3-methylbutyl},4-thiomorpholine-1,1-dione] yielded a Ki (EP3 receptor [1]) of 12 nM and an IC50 (EP3 receptor [2]) of 235 nM.
`CC(C)C(c1ccc(-c2ccc3cccc(F)c3c2)[nH]c1=O)n1ccnc1N` (stereo not shown) [Compound #162, 3-(1-(2-amino-1H-imidazol-1-yl)-2-methylpropyl)-6-(8-fluoronaphthalen-2-yl)pyridin-2(1H)-one] showed a Ki (EP3 receptor [1]) of 13 nM and an IC50 (EP3 receptor [2]) of 117 nM.
Work on `CCN1CCOc2ccc(-c3ccc(C(C(C)C)N4CCSCC4)c(=O)[nH]3)cc21` (stereo not shown) [Compound #164, 6-(4-ethyl-3,4-dihydro-2H-benzo[b][1,4]oxazin-6-yl)-3-(2-methyl-1-thiomorpholinopropyl)pyridin-2(1H)-one] yielded a Ki (EP3 receptor [1]) of 26 nM and an IC50 (EP3 receptor [2]) of 485 nM.
Molecule `CC(C)C(NS(=O)(=O)C1CCCCC1)c1ccc(-c2ccc3cccc(F)c3c2)[nH]c1=O` (stereo not shown) [Compound #165, N-(1-(6-(8-fluoronaphthalen-2-yl)-2-oxo-1,2-dihydropyridin-3-yl)-2-methylpropyl)cyclohexanesulfonamide] has a Ki (EP3 receptor [1]) of 31 nM and an IC50 (EP3 receptor [2]) of 250 nM.
`CCn1ncc2c(F)cc(-c3ccc(C(C(C)C)N4CCS(=O)(=O)CC4)c(=O)[nH]3)cc21` (stereo not shown) [Compound #168, 3-(1-(1,1-dioxidothiomorpholino)-2-methylpropyl)-6-(1-ethyl-4-fluoro-1H-indazol-6-yl)pyridin-2(1H)-one] was tested, and the Ki (EP3 receptor [1]) was 26 nM and the IC50 (EP3 receptor [2]) was 130 nM.
`CCN1CCOc2ccc(-c3ccc(C(C(C)C)N4CCS(=O)(=O)CC4)c(=O)[nH]3)cc21` (stereo not shown) [Compound #169, 3-(1-(1,1-dioxidothiomorpholino)-2-methylpropyl)-6-(4-ethyl-3,4-dihydro-2H-benzo[b][1,4]oxazin-6-yl)pyridin-2(1H)-one] was tested, and the Ki (EP3 receptor [1]) was 51 nM and the IC50 (EP3 receptor [2]) was 476 nM.
Work on `CC(C)C1(Cc2ccc(-c3ccc4cccc(F)c4c3)[nH]c2=O)OC(=O)NC1=O` (stereo not shown) [Compound #262, 5-((6-(8-fluoronaphthalen-2-yl)-2-oxo-1,2-dihydropyridin-3-yl)methyl)-5-isopropyloxazolidine-2,4-dione] yielded a Ki (EP3 receptor [1]) of 152 nM and an IC50 (EP3 receptor [2]) of 282 nM.
For `CC(C)C(Cc1cc(Cl)c(-c2ccc3cccc(F)c3c2)[nH]c1=O)c1noc(=O)[nH]1` (stereo not shown) [Compound #272, 3-(1-(5-chloro-6-(8-fluoronaphthalen-2-yl)-2-oxo-1,2-dihydropyridin-3-yl)-3-methylbutan-2-yl)-1,2,4-oxadiazol-5(4H)-one], the Ki (EP3 receptor [1]) was greater than 10000 nM and the IC50 (EP3 receptor [2]) was greater than 20000 nM.
`CCn1ncc2c(F)cc(-c3ccc(C(c4noc(=O)[nH]4)C(C)C)c(=O)[nH]3)cc21` (stereo not shown) [Compound #277, 3-(1-(6-(1-ethyl-4-fluoro-1H-indazol-6-yl)-2-oxo-1,2-dihydropyridin-3-yl)-2-methylpropyl)-1,2,4-oxadiazol-5(4H)-one] was tested, and the Ki (EP3 receptor [1]) was 107 nM and the IC50 (EP3 receptor [2]) was 548 nM.
Work on `CCn1nc(C)c2ccc(-c3ccc(C(C=C4OC(=O)NC4=O)(CC)CC)c(=O)[nH]3)cc21` [compound 34, 5-(2-ethyl-2-(6-(1-ethyl-3-methyl-1H-indazol-6-yl)-2-oxo-1,2-dihydropyridin-3-yl)butylidene)oxazo-lidine-2,4-dione] yielded an IC50 (EP3 receptor [2]) of 17600 nM.
Molecule `CCn1ncc2cc(C)c(-c3ccc(C(/C=C4/OC(=O)NC4=O)(CC)CC)c(=O)[nH]3)cc21` [compound 43, 5-(2-ethyl-2-(6-(1-ethyl-5-methyl-1H-indazol-6-yl)-2-oxo-1,2-dihydropyridin-3-yl)butylidene)oxazolidine-2,4-dione] has an IC50 (EP3 receptor [2]) greater than 20000 nM.
